Data reported in US9326513B2, “Fungicidal compositions” (Syngenta Participations AG, priority 2011, dated 2016).

Columns and labels:
Type in all cases: in vivo
Conditions in all cases: foliar, compared to untreated control leaf disks, read-out: disease control
[1] = tested on: Puccinia recondita f. sp. tritici; experiment: Puccinia recondita f. sp. tritici / wheat / leaf disc curative (brown rust)
Procedure: Puccinia recondita f. sp. tritici/Wheat/Leaf Disc Curative (Brown Rust) Wheat leaf segments cv. Kanzler are placed on agar in multiwell plates (24-well format). The leaf segments are inoculated with a spore suspension of the fungus. Plates were stored in darkness at 19° C. and 75% rh. The formulated test compound diluted in water was applied 1 day after inoculation.

[2] = tested on: Puccinia recondita f. sp. tritici; experiment: Puccinia recondita f. sp. tritici / wheat / leaf disc preventative (brown rust)
Excerpt: Puccinia recondita f. sp. tritici/Wheat/Leaf Disc Preventative (Brown Rust) Wheat leaf segments cv. Kanzler were placed on agar in multiwell plates (24-well format) and sprayed with the formulated test compound diluted in water. The leaf disks were inoculated with a spore suspension of the fungus 1 day after application.

[3] = tested on: Blumeria graminis f. sp. tritici (Erysiphe graminis f. sp. tritici); experiment: Blumeria graminis f. sp. tritici / wheat / leaf disc preventative (powdery mildew on wheat)
How it was run: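 Preventative leaf-disc test: compound (200 ppm) was sprayed onto cv. Kanzler wheat segments, which were dusted with conidia from infected plants 1 day after application. After incubation at 20° C and 60% rh, disease control relative to untreated segments was rated 6-8 days after application.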

Pyrenophora teres = Pyrenophora teres / barley / leaf disc preventative (net blotch)
Excerpt: Pyrenophora teres/Barley/Leaf Disc Preventative (Net Blotch) Barley leaf segments cv. Hasso were placed on agar in a multiwell plate (24-well format) and sprayed with the formulated test compound diluted in water. The leaf segments were inoculated with a spore suspension of the fungus 2 days after application.

Measured: pest or weed control at 200 ppm

CCN(C)/C=N/c1cc(Br)c(OC2CCc3ccc(/C(C)=N/OC)cc3C2)nc1C (stereo not drawn) [Q.039]
≥ 50%: all assays above

CCN(C)/C=N/c1cc(Br)c(OCCCC(C)=C(C)C)nc1C [Q.103]
≥ 50%: all assays above

CCc1cccc(C(C)Oc2nc(C)c(/N=C/N(C)CC)cc2Br)c1 (stereo not drawn) [Q.284]
≥ 50%: all assays above

CCN(C)/C=N/c1cc(Br)c(OCC#Cc2ccccc2)nc1C [Q.016]
≥ 50%: all assays above

CCN(C)/C=N/c1cc(Br)c(OCCC[Si](C)(C)C)nc1C [Q.015]
≥ 50%: all assays above

CCN(C)/C=N/c1cc(Br)c(OC2CCN(C(=O)OC(C)(C)C)CC2)nc1C [Q.038]
≥ 50%: all assays above

CCN(C)/C=N/c1cc(OC)c(O[C@H]2CC[C@@H](C(C)C)CC2)nc1C [Q.248]
≥ 50%: all assays above

CCN(C)/C=N/c1cc(Br)c(OC2Cc3ccc(OCc4ccns4)cc3C2)nc1C (stereo not drawn) [Q.144]
≥ 50%: all assays above

CCN(C)/C=N/c1cc(Br)c(OCc2ccc(OC)nc2)nc1C [Q.115]
≥ 50%: all assays above

CCN(C)/C=N/c1cc(Br)c(OC(C)c2ccccc2)nc1C (stereo not drawn) [Q.102]
≥ 50%: all assays above

CCN(C)/C=N/c1cc(C(C)C)c(OC(C)c2cc(F)cc(F)c2)nc1C (stereo not drawn) [Q.280]
≥ 50%: all assays above

CCN(C)/C=N/c1cc(Br)c(OC2CCOCC2)nc1C [Q.244]
≥ 50%: all assays above

CCN(C)/C=N/c1ccc(O[C@H]2CC[C@@H](C(C)C)CC2)nc1C [Q.183]
≥ 50%: all assays above

CCN(C)/C=N/c1cc(Br)c(OCCCCc2ccccc2)nc1C [Q.148]
≥ 50%: all assays above

CCN(/C=N/c1cc(Br)c(OCCCC(C)C)nc1C)CC [Q.001]
≥ 50%: all assays above
